Measurements published in PubChem BioAssay (NCI).
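Values below derive from 48-hour exposures of cells grown in 96-well plates, with endpoints linearly interpolated between the two concentrations bracketing the appropriate inhibition level. GI50 is the concentration that inhibits growth by half. At the TGI there is no net growth.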

Experiments:
Experiment in all cases: NCI-60 cell line screen, 48 h
UACC-257 melanoma = tested on: UACC-257 melanoma
CAKI-1 renal = tested on: CAKI-1 renal
OVCAR-5 ovarian = tested on: OVCAR-5 ovarian
SNB-19 CNS = tested on: SNB-19 CNS
M14 melanoma = tested on: M14 melanoma
HT29 colon = tested on: HT29 colon
NCI-H522 lung = tested on: NCI-H522 lung
T-47D breast = tested on: T-47D breast
SK-MEL-2 melanoma = tested on: SK-MEL-2 melanoma
RXF 393 renal = tested on: RXF 393 renal
EKVX NSCLC = tested on: EKVX NSCLC
UACC-62 melanoma = tested on: UACC-62 melanoma
MALME-3M melanoma = tested on: MALME-3M melanoma
HOP-92 NSCLC = tested on: HOP-92 NSCLC
NCI-H23 lung = tested on: NCI-H23 lung
MOLT-4 leukemia = tested on: MOLT-4 leukemia
OVCAR-8 ovarian = tested on: OVCAR-8 ovarian
A498 renal = tested on: A498 renal
BT-549 breast = tested on: BT-549 breast
MDA-MB-435 = tested on: MDA-MB-435
RPMI-8226 leukemia = tested on: RPMI-8226 leukemia
NCI-H226 lung = tested on: NCI-H226 lung
HCC-2998 colon = tested on: HCC-2998 colon
OVCAR-3 ovarian = tested on: OVCAR-3 ovarian
SN12C renal = tested on: SN12C renal
SF-539 CNS = tested on: SF-539 CNS
HS 578T breast = tested on: HS 578T breast
SK-MEL-28 melanoma = tested on: SK-MEL-28 melanoma
MDA-MB-468 breast = tested on: MDA-MB-468 breast
HCT-15 colon = tested on: HCT-15 colon
HL-60(TB) leukemia = tested on: HL-60(TB) leukemia
SF-268 CNS = tested on: SF-268 CNS
DU-145 prostate = tested on: DU-145 prostate
UO-31 renal = tested on: UO-31 renal
HCT-116 colon = tested on: HCT-116 colon
SK-MEL-5 melanoma = tested on: SK-MEL-5 melanoma
CCRF-CEM leukemia = tested on: CCRF-CEM leukemia
MCF7 breast = tested on: MCF7 breast
786-0 renal = tested on: 786-0 renal
SK-OV-3 ovarian = tested on: SK-OV-3 ovarian
SNB-75 CNS = tested on: SNB-75 CNS
K-562 leukemia = tested on: K-562 leukemia
MDA-MB-231 breast = tested on: MDA-MB-231 breast
TK-10 renal = tested on: TK-10 renal
IGROV1 ovarian = tested on: IGROV1 ovarian
SF-295 CNS = tested on: SF-295 CNS
COLO 205 colon = tested on: COLO 205 colon
ACHN renal = tested on: ACHN renal
A549 NSCLC = tested on: A549 NSCLC
PC-3 prostate = tested on: PC-3 prostate
HOP-62 NSCLC = tested on: HOP-62 NSCLC
LOX IMVI melanoma = tested on: LOX IMVI melanoma
KM12 colon = tested on: KM12 colon

SMILES: Cn1cc(-c2cc3nc(-c4cn(C)c5ncc(Br)cc45)cc(N)n3n2)c2cc(Cl)ccc21
- GI50 (UACC-257 melanoma): 1710 nM
- TGI (UACC-257 melanoma): 3560 nM
- GI50 (CAKI-1 renal): 1450 nM
- TGI (CAKI-1 renal): 2950 nM
- GI50 (OVCAR-5 ovarian): 1520 nM
- TGI (OVCAR-5 ovarian): 3390 nM
- GI50 (SNB-19 CNS): 1890 nM
- TGI (SNB-19 CNS): 3830 nM
- GI50 (M14 melanoma): 1710 nM
- TGI (M14 melanoma): 3250 nM
- GI50 (HT29 colon): 1910 nM
- TGI (HT29 colon): 3620 nM
- GI50 (NCI-H522 lung): 1870 nM
- TGI (NCI-H522 lung): 3840 nM
- GI50 (T-47D breast): 1580 nM
- TGI (T-47D breast): 3630 nM
- GI50 (SK-MEL-2 melanoma): 1930 nM
- TGI (SK-MEL-2 melanoma): 4200 nM
- GI50 (RXF 393 renal): 1820 nM
- TGI (RXF 393 renal): 3470 nM
- GI50 (EKVX NSCLC): 1480 nM
- TGI (EKVX NSCLC): 3340 nM
- GI50 (UACC-62 melanoma): 1470 nM
- TGI (UACC-62 melanoma): 2850 nM
- GI50 (MALME-3M melanoma): 1740 nM
- TGI (MALME-3M melanoma): 3200 nM
- GI50 (HOP-92 NSCLC): 1860 nM
- TGI (HOP-92 NSCLC): 3740 nM
- GI50 (NCI-H23 lung): 1910 nM
- TGI (NCI-H23 lung): 3980 nM
- GI50 (MOLT-4 leukemia): 1710 nM
- TGI (MOLT-4 leukemia): 5070 nM
- GI50 (OVCAR-8 ovarian): 2020 nM
- TGI (OVCAR-8 ovarian): 4960 nM
- GI50 (A498 renal): 7390 nM
- TGI (A498 renal): 24000 nM
- GI50 (BT-549 breast): 1910 nM
- TGI (BT-549 breast): 4240 nM
- GI50 (MDA-MB-435): 1760 nM
- TGI (MDA-MB-435): 3380 nM
- GI50 (RPMI-8226 leukemia): 2930 nM
- TGI (RPMI-8226 leukemia): 9380 nM
- GI50 (NCI-H226 lung): 1990 nM
- TGI (NCI-H226 lung): 4420 nM
- GI50 (HCC-2998 colon): 1740 nM
- TGI (HCC-2998 colon): 3170 nM
- GI50 (OVCAR-3 ovarian): 1630 nM
- TGI (OVCAR-3 ovarian): 3250 nM
- GI50 (SN12C renal): 1720 nM
- TGI (SN12C renal): 3440 nM
- GI50 (SF-539 CNS): 1510 nM
- TGI (SF-539 CNS): 2880 nM
- GI50 (HS 578T breast): 1890 nM
- TGI (HS 578T breast): 4480 nM
- GI50 (SK-MEL-28 melanoma): 1720 nM
- TGI (SK-MEL-28 melanoma): 3230 nM
- GI50 (MDA-MB-468 breast): 1320 nM
- TGI (MDA-MB-468 breast): 2680 nM
- GI50 (HCT-15 colon): 1570 nM
- TGI (HCT-15 colon): 3160 nM
- GI50 (HL-60(TB) leukemia): 1990 nM
- TGI (HL-60(TB) leukemia): 5060 nM
- GI50 (SF-268 CNS): 2110 nM
- TGI (SF-268 CNS): 5110 nM
- GI50 (DU-145 prostate): 1780 nM
- TGI (DU-145 prostate): 3610 nM
- GI50 (UO-31 renal): 1540 nM
- TGI (UO-31 renal): 3330 nM
- GI50 (HCT-116 colon): 1550 nM
- TGI (HCT-116 colon): 2960 nM
- GI50 (SK-MEL-5 melanoma): 1820 nM
- TGI (SK-MEL-5 melanoma): 4000 nM
- GI50 (CCRF-CEM leukemia): 2870 nM
- TGI (CCRF-CEM leukemia): 9950 nM
- GI50 (MCF7 breast): 1640 nM
- TGI (MCF7 breast): 3250 nM
- GI50 (786-0 renal): 1760 nM
- TGI (786-0 renal): 3200 nM
- GI50 (SK-OV-3 ovarian): 13700 nM
- TGI (SK-OV-3 ovarian): 29100 nM
- GI50 (SNB-75 CNS): 1750 nM
- TGI (SNB-75 CNS): 4030 nM
- GI50 (K-562 leukemia): 1840 nM
- TGI (K-562 leukemia): 5500 nM
- GI50 (MDA-MB-231 breast): 1430 nM
- TGI (MDA-MB-231 breast): 2890 nM
- GI50 (TK-10 renal): 1600 nM
- TGI (TK-10 renal): 3130 nM
- GI50 (IGROV1 ovarian): 1710 nM
- TGI (IGROV1 ovarian): 3380 nM
- GI50 (SF-295 CNS): 1750 nM
- TGI (SF-295 CNS): 3430 nM
- GI50 (COLO 205 colon): 2560 nM
- TGI (COLO 205 colon): 6650 nM
- GI50 (ACHN renal): 1550 nM
- TGI (ACHN renal): 2880 nM
- GI50 (A549 NSCLC): 1620 nM
- TGI (A549 NSCLC): 3540 nM
- GI50 (PC-3 prostate): 1760 nM
- TGI (PC-3 prostate): 4090 nM
- GI50 (HOP-62 NSCLC): 1720 nM
- TGI (HOP-62 NSCLC): 3480 nM
- GI50 (LOX IMVI melanoma): 1610 nM
- TGI (LOX IMVI melanoma): 2960 nM
- GI50 (KM12 colon): 1490 nM
- TGI (KM12 colon): 3960 nM
